Measured values reported in ChEMBL document CHEMBL4184149, “Discovery and process development of a novel TACE inhibitor for the topical treatment of psoriasis” (Bioorg Med Chem, 2018).
In brackets after ≈: the same amount, converted by molar mass. Activity calls are given as the source filed them. The calls are words filed in the database; no cut-off is given here.

Experiments:
[1] = Solubility of the compound in propylene glycol/ethanol96 at 30 mg/ml after 24 hrs by UV-spectrometric analysis; type: physicochemical; details: for solubility at 24 h: propylene glycol/ethanol96; for solubility: 24 h
[2] = target: Disintegrin and metalloproteinase domain-containing protein 17 (Homo sapiens, UniProt P78536); assay: Inhibition of TACE in human PBMC assessed as reduction in LPS-induced TNFalpha production incubated overnight by HTRF assay; type: cell-based
[3] = (§1) Intrinsic clearance in human hepatocytes assessed per million cells at 1 uM by LC-MS/MS analysis; type: ADME, cell-based, Hepatocyte; details: human hepatocytes, read-out: CLH
TK6 [4] = assay: Genotoxicity in p53-competent human TK6 cells in presence of Sprague-Dawley rat S9 fraction by GADD45alpha GFP reporter assay; type: toxicity, cell-based
TK6 [5] = assay: Genotoxicity in p53-competent human TK6 cells in absence of Sprague-Dawley rat S9 fraction by GADD45alpha GFP reporter assay; type: toxicity, cell-based
[6] = Stability of the compound in propylene glycol/ethanol96 assessed as parent compound remaining at 0.1 mg/ml after 1 month at 40 degC by HPLC analysis; type: physicochemical; details: read-out: Stability
[7] = Aqueous solubility of the compound in PBS at pH 7.4 at 20 degC after 24 hrs by HPLC analysis; type: physicochemical
[8] = Half life in human neonatal keratinocytes at 1 uM by LC-MS/MS analysis; type: ADME, cell-based
[9] = Stability of the compound in propylene glycol/ethanol96 at 0.1 mg/ml measured up to 3 months by HPLC analysis; type: physicochemical; details: read-out: Stability
Mus musculus = assay: Antiinflammatory activity in topically applied oxazolone-induced chronic skin inflammation hairless SKH1 mouse model assessed as decrease in skin lesions applied topically for 10 days in combination with oxazolone; type: functional, organism-based
[10] = Photoirritancy factor, ratio of EC50 for human neonatal keratinocytes under dark condition to EC50 for human neonatal keratinocytes under 5 J/cm2 UV light exposure; type: toxicity; details: read-out: Ratio EC50
Hepatocyte = assay: as §1; type: ADME, cell-based; details: hepatocytes, 1 µM

Sequence of Disintegrin and metalloproteinase domain-containing protein 17 (P78536 whole entry, the tested form may be a part): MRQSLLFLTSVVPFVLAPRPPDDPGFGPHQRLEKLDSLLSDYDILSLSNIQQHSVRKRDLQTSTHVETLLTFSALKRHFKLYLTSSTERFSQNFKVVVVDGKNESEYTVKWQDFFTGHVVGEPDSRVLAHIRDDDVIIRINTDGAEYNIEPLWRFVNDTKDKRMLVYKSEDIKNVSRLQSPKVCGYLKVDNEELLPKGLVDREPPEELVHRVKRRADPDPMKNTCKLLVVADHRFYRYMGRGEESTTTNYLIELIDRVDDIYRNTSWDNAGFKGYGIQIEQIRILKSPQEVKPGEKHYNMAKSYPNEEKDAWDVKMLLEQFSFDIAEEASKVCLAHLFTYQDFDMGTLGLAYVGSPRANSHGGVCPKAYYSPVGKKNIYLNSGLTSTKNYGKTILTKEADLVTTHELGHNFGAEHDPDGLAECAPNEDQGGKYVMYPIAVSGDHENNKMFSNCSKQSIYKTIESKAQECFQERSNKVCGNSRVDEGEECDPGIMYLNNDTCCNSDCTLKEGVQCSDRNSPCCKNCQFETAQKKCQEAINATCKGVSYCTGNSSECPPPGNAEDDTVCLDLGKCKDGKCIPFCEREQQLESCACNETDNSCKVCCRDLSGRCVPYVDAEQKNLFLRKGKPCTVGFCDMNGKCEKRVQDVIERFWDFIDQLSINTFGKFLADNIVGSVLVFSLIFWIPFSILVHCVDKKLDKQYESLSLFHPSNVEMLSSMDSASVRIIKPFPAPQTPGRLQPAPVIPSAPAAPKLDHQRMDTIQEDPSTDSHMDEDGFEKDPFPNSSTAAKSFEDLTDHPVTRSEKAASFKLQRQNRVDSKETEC

SMILES | solubility at 24 h [1] | IC50 [2] | further results
CC(=O)N1CC(CC(=O)NO)(NS(=O)(=O)c2ccc(OCc3cc(C)nc4ccccc34)cc2C)C1 | 900 µM (≈ 461 µg/mL) | > 10000 nM | 
Cc1cc(COc2ccc(S(=O)(=O)NC3(C(=O)NO)CN(C(=O)CC(C)C)C3)cc2)c2ccccc2n1 | 5000 µM (≈ 2630 µg/mL) | 33 nM | hepatocyte CLint at 1 µM [3]: 6 µL/min/1e6 cells
CCN(C1(C(=O)NO)CN(C(=O)C(C)C)C1)S(=O)(=O)c1ccc(OCc2cc(C)nc3ccccc23)cc1 | 44000 µM (≈ 23800 µg/mL) | 37 nM | hepatocyte CLint at 1 µM [3]: 11 µL/min/1e6 cells
CC#CCOc1ccc(S(=O)(=O)NC2(CC(=O)NO)CN(C(C)=O)C2)cc1 | 1800 µM (≈ 712 µg/mL) | 1300 nM | 
CC(=O)N1CC(CC(=O)NO)(NS(=O)(=O)c2ccc(OCc3cc(C)nc4c(F)cccc34)cc2)C1 |  | 61 nM | 
Cc1cc(COc2ccc(S(=O)(=O)NC3(C(=O)NO)CCCC3)cc2)c2ccccc2n1 | 200 µM (≈ 91.1 µg/mL) | 68 nM | 
Cc1cc(COc2ccc(S(=O)(=O)NC3(CC(=O)NO)CN(CCC(F)(F)F)C3)cc2)c2ccccc2n1 | 3400 µM (≈ 1880 µg/mL) | 10 nM | remaining at 730.5 h, 0.1 mg/ml [6]: 88%
Cc1cc(COc2ccc(S(=O)(=O)NC(C)(C)C(=O)NO)cc2)c2ccccc2n1 |  | 140 nM | 
Cc1cc(COc2ccc(S(=O)(=O)NC3(CC(=O)NO)CN(C(=O)N4CCCCC4)C3)cc2)c2ccccc2n1 | 500 µM (≈ 284 µg/mL) | 5 nM | solubility at 24 h [7]: 80 µM (≈ 45.4 µg/mL)
Cc1cc(COc2ccc(S(=O)(=O)N(C(C)C)C3(C(=O)NO)CN(C(=O)C(C)C)C3)cc2)c2ccccc2n1 | 2200 µM (≈ 1220 µg/mL) | 790 nM | hepatocyte CLint at 1 µM [3]: 17 µL/min/1e6 cells
Cc1cc(COc2ccc(S(=O)(=O)NCC(=O)NO)cc2)c2ccccc2n1 | 100 µM (≈ 40.1 µg/mL) | 82 nM | 
Cc1cc(COc2ccc(S(=O)(=O)NC3(C(=O)NO)CN(CCC(F)(F)F)C3)cc2)c2ccccc2n1 |  |  | remaining at 730.5 h, 0.1 mg/ml [6]: 58%
Cc1cc(COc2ccc(S(=O)(=O)NC(C)(C)CC(=O)NO)cc2)c2ccccc2n1 | 1600 µM (≈ 710 µg/mL) | 43 nM | 
Cc1cc(COc2ccc(S(=O)(=O)NCCC(=O)NO)cc2)c2ccccc2n1 | 4100 µM (≈ 1700 µg/mL) | 2300 nM | 
CCCCC(=O)O[C@]1(C(=O)CO)[C@@H](C)C[C@H]2[C@@H]3CCC4=CC(=O)C=C[C@]4(C)[C@@]3(F)[C@@H](O)C[C@@]21C |  |  | Activity (Mus musculus): Active
CCCCN1CC(CC(=O)NO)(NS(=O)(=O)c2ccc(OCc3cc(C)nc4ccccc34)cc2)C1 | 4900 µM (≈ 2510 µg/mL) | 12 nM | remaining at 730.5 h, 0.1 mg/ml [6]: 72%; solubility at 24 h [7]: 70 µM (≈ 35.9 µg/mL)
Cc1cc(COc2ccc(S(=O)(=O)NC3(C(=O)NO)CCCCC3)cc2)c2ccccc2n1 | 11000 µM (≈ 5170 µg/mL) | 100 nM | Activity (TK6 [4]): Non-Toxic; Activity (TK6 [5]): Non-Toxic
CC(=O)N1CC(CC(=O)NO)(NS(=O)(=O)c2ccc(OCc3cc(C)nc4ccccc34)c(C)c2)C1 | 400 µM (≈ 205 µg/mL) | > 10000 nM | 
Cc1cc(COc2ccc(S(=O)(=O)N(C)C3(C(=O)NO)CN(CCC(F)(F)F)C3)cc2)c2ccccc2n1 |  |  | remaining at 730.5 h, 0.1 mg/ml [6]: 98%
COCCN(C1(C(=O)NO)CN(C(=O)C(C)C)C1)S(=O)(=O)c1ccc(OCc2cc(C)nc3ccccc23)cc1 | 8900 µM (≈ 5080 µg/mL) | 31 nM | hepatocyte CLint at 1 µM [3]: 18 µL/min/1e6 cells
Cc1cc(COc2ccc(S(=O)(=O)NC3(C(=O)NO)CCC3)cc2)c2ccccc2n1 |  | 30 nM | Activity (TK6 [4]): Toxic; Activity (TK6 [5]): Toxic
Cc1cc(COc2ccc(S(=O)(=O)NC3(C(=O)NO)CN(C(=O)C(C)C)C3)cc2)c2ccccc2n1 | 17000 µM (≈ 8710 µg/mL) | 16 nM | Activity (TK6 [4]): Non-Toxic; Activity (TK6 [5]): Non-Toxic; hepatocyte CLint at 1 µM [3]: < 5 µL/min/1e6 cells
Cc1cc(COc2ccc(S(=O)(=O)NC3(C(=O)NO)CC3)cc2)c2ccccc2n1 | 46000 µM (≈ 19700 µg/mL) | 210 nM | Activity (TK6 [4]): Toxic; Activity (TK6 [5]): Toxic
Cc1cc(COc2ccc(S(=O)(=O)NC[C@@H](C(=O)NO)N3CCCCC3)cc2)c2ccccc2n1 | 8000 µM (≈ 3990 µg/mL) |  | half-life at 1 µM [8]: > 24 h; Activity (TK6 [4]): Non-Toxic; solubility at 24 h [7]: < 1 µM; remaining at 0.1 mg/ml [9]: 89%; Activity (TK6 [5]): Non-Toxic; hepatocyte CLint at 1 µM [3]: 24 µL/min/1e6 cells
CC(=O)N1CCC(NS(=O)(=O)c2ccc(OCc3cc(C)nc4ccccc34)cc2)(C(=O)NO)CC1 | 59000 µM (≈ 30200 µg/mL) | 61 nM | Activity (TK6 [4]): Toxic; Activity (TK6 [5]): Toxic
CC(=O)N1CC(CC(=O)NO)(NS(=O)(=O)c2ccc(SCc3cc(C)nc4ccccc34)cc2)C1 | 1000 µM (≈ 515 µg/mL) | 720 nM | 

Second part, led by results:

solubility at 24 h [1] | IC50 [2] | SMILES | further results
 | 8 nM | Cc1cc(COc2ccc(S(=O)(=O)NC3(CC(=O)NO)CCN(C(=O)CC(C)C)C3)cc2)c2ccccc2n1 (stereo in doubt; 18g) | Activity (TK6 [4]): Toxic; solubility [1]: 17000 µM (≈ 9430 µg/mL); Activity (TK6 [5]): Toxic
1100 µM (≈ 597 µg/mL) | 6 nM | Cc1cc(COc2ccc(S(=O)(=O)NC3(CC(=O)NO)CN(C(=O)OC(C)C)C3)cc2)c2ccccc2n1 | solubility at 24 h [7]: 80 µM (≈ 43.4 µg/mL)
1900 µM (≈ 917 µg/mL) | 240 nM | CC(=O)N1CC(CC(=O)NO)(NS(=O)(=O)c2ccc(Cc3cc(C)nc4ccccc34)cc2)C1 | 
 | 590 nM | CC(=O)N1CC(CC(=O)NO)(N(C)S(=O)(=O)c2ccc(OCc3cc(C)nc4ccccc34)cc2)C1 | 
17000 µM (≈ 8920 µg/mL) | 36 nM | CC(=O)N1CC2(C1)CC(NS(=O)(=O)c1ccc(OCc3cc(C)nc4ccccc34)cc1)(C(=O)NO)C2 | half-life at 1 µM [8]: > 24 h; Activity (TK6 [4]): Toxic; solubility at 24 h [7]: 84 µM (≈ 44.1 µg/mL); remaining at 0.1 mg/ml [9]: 95%; Activity (TK6 [5]): Toxic; hepatocyte CLint at 1 µM [3]: < 5 µL/min/1e6 cells
3000 µM (≈ 1620 µg/mL) | 4 nM | CC(=O)N1CC2(C1)CC(CC(=O)NO)(NS(=O)(=O)c1ccc(OCc3cc(C)nc4ccccc34)cc1)C2 | 
 | 13 nM | Cc1cc(COc2ccc(S(=O)(=O)NC3(CC(=O)NO)CCC3)cc2)c2ccccc2n1 | 
400 µM (≈ 205 µg/mL) | 27 nM | CCc1cc(COc2ccc(S(=O)(=O)NC3(CC(=O)NO)CN(C(C)=O)C3)cc2)c2ccccc2n1 | 
800 µM (≈ 399 µg/mL) | 8 nM | CC(=O)N1CC(CC(=O)NO)(NS(=O)(=O)c2ccc(OCc3cc(C)nc4ccccc34)cc2)C1 | half-life at 1 µM [8]: > 24 h; Activity (TK6 [4]): Non-Toxic; solubility at 24 h [7]: < 0.5 µM; selectivity ratio [10]: 1; remaining at 0.1 mg/ml [9]: 98%; Activity (TK6 [5]): Non-Toxic; hepatocyte CLint at 1 µM [3]: < 5 µL/min/1e6 cells
900 µM (≈ 487 µg/mL) | 6 nM | Cc1cc(COc2ccc(S(=O)(=O)NC3(CC(=O)NO)CN(C(=O)CC(C)C)C3)cc2)c2ccccc2n1 | hepatocyte CLint at 1 µM [3]: 13 µL/min/1e6 cells
1600 µM (≈ 706 µg/mL) | 84 nM | Cc1cc(COc2ccc(S(=O)(=O)NC3(CC(=O)NO)CC3)cc2)c2ccccc2n1 | 
200 µM (≈ 91.5 µg/mL) | 10 nM | Cc1cc(COc2ccc(S(=O)(=O)NC3(CC(=O)NO)COC3)cc2)c2ccccc2n1 | 
 | 42 nM | Cc1cc(COc2ccc(S(=O)(=O)NC3(CC(=O)NO)CCN(C(=O)CC(C)C)C3)cc2)c2ccccc2n1 (stereo in doubt; 18h) | solubility [1]: 7900 µM (≈ 4380 µg/mL)
11000 µM (≈ 6270 µg/mL) | 4.6 nM | Cc1cc(COc2ccc(S(=O)(=O)NC3(CC(=O)NO)CN(C(=O)C(C)(C)N(C)C)C3)cc2)c2ccccc2n1 | Activity (TK6 [4]): Non-Toxic; Activity (TK6 [5]): Non-Toxic; Stability (Hepatocyte): Unstable
